On the set-up of data set [1]: method as in PMID 35458649. The note with it: 25a, comparison value; cited from earlier work.
For data set [2], the target named is T1, UT-B (Mus musculus, UniProt Q8VHL0).
T1 construct: endogenous in cells; host or cells: erythrocytes from wild-type C57BL/6 mice
T1 sequence (Q8VHL0 1-384): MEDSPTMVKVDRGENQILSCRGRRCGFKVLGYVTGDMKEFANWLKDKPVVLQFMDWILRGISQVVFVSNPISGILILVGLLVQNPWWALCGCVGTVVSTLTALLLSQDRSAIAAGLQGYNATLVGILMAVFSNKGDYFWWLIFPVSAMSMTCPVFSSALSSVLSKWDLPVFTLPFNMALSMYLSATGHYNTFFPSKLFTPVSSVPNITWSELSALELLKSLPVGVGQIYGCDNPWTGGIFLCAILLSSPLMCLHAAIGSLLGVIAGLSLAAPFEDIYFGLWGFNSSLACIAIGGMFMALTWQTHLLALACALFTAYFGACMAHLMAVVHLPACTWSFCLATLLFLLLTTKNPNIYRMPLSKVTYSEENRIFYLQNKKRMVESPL
The data set is described as follows: Erythrocyte lysis assay for UT-B inhibition, mouse erythrocytes. The data set is classed as cell-based. The note with it: erythrocyte lysis model; mouse; n = 3, means; read-out: IC50 (μM) Mouse. The procedure: (§1) The erythrocyte lysis assay was modified from a method described previously. Erythrocytes obtained from veins were diluted to a hematocrit value of 2% in hyperosmolar PBS containing 1.25 mol/L urea and 5 mmol/L glucose and incubated at r.t. for 2 h. Then, 99 μL erythrocyte suspension from a reservoir was added to each well of a 96-well round-bottom microplate, then 1 μL of the testing compound (500, 125, 31.25, 7.81, 1.95, 0.488, 0.122, 0.031, 0.0076 μmol/L dissolved in DMSO) was added to erythrocyte suspension and shook it up with microoscillator for 1 min. Following 5 min incubation, 20 μL erythrocyte suspension was transferred into 96-well black microplates preloaded with 180 μL isotonic PBS (10 mM, urea-free). Erythrocyte lysis was monitored at 710 nm optical density (OD710) for 6 min, with lysis rates calculated using control values from the same plate as Equation (1):Lysis (%) = 100 × (Aneg − Atest)/(Aneg − Apos)(1) where Atest is the absorbance value from the test well, Aneg is from a negative no-lysis control well, and Apos is from a positive full-lysis control.

The target in data set [3] is T2, UT-B (Rattus norvegicus, UniProt P97689).
T2 construct: endogenous in cells; host or cells: erythrocytes from male SD rats
T2 sequence (P97689 1-384): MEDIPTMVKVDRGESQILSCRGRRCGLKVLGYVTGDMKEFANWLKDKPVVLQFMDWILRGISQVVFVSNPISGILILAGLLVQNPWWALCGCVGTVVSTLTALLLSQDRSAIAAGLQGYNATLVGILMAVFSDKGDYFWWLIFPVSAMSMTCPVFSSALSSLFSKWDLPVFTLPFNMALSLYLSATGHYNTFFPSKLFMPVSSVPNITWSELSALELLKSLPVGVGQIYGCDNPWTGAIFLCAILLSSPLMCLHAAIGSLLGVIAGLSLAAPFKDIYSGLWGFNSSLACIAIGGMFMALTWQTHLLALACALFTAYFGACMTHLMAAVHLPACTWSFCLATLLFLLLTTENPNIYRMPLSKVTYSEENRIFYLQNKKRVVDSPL
Nature of the data set: Erythrocyte lysis assay for UT-B inhibition, rat erythrocytes. Type of data set: cell-based. The note with it: erythrocyte lysis model; rat; n = 3, means; read-out: IC50 (μM) Rat. Here is the method: as §1

For the next data set, the system named is mice. Nature of the data set: Mouse sperm malformation assay. Particulars: mice; day 35; E3 2000 mg/kg/day oral for 5 days; CP 50 mg/kg i.p.; vs control. Here is the method: Male mice were randomly divided into three groups: control group (0.5% CMC-Na), E3 2000 mg/kg group, and positive group (50 mg/kg cyclophosphamide (CP), administered via intraperitoneal injection). E3 and the control group were administered once daily by intragastric gavage. All mice received treatment for 5 consecutive days. After the initial dosing period, […], the mice were euthanized, and evaluation of sperm parameters was performed as follows:
Caudal epididymides were dissected into fragments in physiological saline and incubated (37 °C, 5% CO2, 10 min). Spermatozoa were isolated through nylon mesh filtration. Semen parameters were quantified using computer-assisted semen analysis (CASA). Eosin-stained smears (20 μL sperm suspension) were analyzed to examine sperm morphology. […] Sperm shape abnormalities, such as banana, headless, without a hook, amorphous, double-tailed, and fat head, were identified and counted. In addition, the testis was reserved for morphological analysis. The spermatogenesis was graded from 1 to 10 using the Johnsen score.

The test system of data set [4] is rat hyponatremia model caused by SIADH. The data set is described as follows: Rat hyponatremia model caused by SIADH (dDAVP). Type of data set: in vivo. The procedure: The protocol for dDAVP-induced hyponatremia was adapted from a previous study, with tolvaptan chosen as the positive control. Preliminary experiments determined the dose of dDAVP (0.25 ng/h). Under isoflurane anesthesia, a 0.5 μg/mL dDAVP solution was injected subcutaneously using an osmotic minipump (ALZET 2002, Cupertino, CA, USA; 200 μL, low rate of 0.5 μL/h for […]). Rats were housed individually in metabolic cages to collect urine. Before using the pump, they were given 62.5 mL/d 1.0 kcal/mL of liquid food. After pump implantation, the rats received 40 mL of 2.1 kcal/mL of liquid feed daily. The rats were divided into five groups: control group (sham operation), model group (0.5% poloxamer, solvent), 4 mg/kg tolvaptan group, 4 mg/kg E3 group, and 20 mg/kg E3 group. E3 was administered orally every 8 h, while tolvaptan was given intragastrically once daily. At the end of the experiment, the rats were sacrificed.

Where [5] appears, read: SIADH rats, E3 4 or 20 mg/kg every 8 h, tolvaptan 4 mg/kg once daily, vs model rats.

Some results are limits rather than exact numbers.

On to `CC(=O)Nc1ccc(NC(=O)c2ccc(C(C)=O)o2)cc1` [Compound 25a, N-(4-acetamidophenyl)-5-acetylfuran-2-carboxamide], for which, in data set [1], the half-life (as a rule, the time needed for the level to fall by half in the phase considered) is given as 2.86 h and the tmax time is recorded as 0.25 h.
Take `CCN1CCN(c2ccc(NC(=O)c3ccc(C(C)=O)o3)cc2)CC1` [Compound E1]: the IC50 (in general, the midpoint of a concentration-inhibition curve) at UT-B [2] is 0.86 µM; on UT-B [3], 0.32 µM.
Take `CC(=O)c1ccc(C(=O)Nc2ccc(C(=O)NCCN(C)C)cc2)o1` [Compound E2]: the IC50 is 2.41 µM on UT-B [2] and 0.4 µM on UT-B [3].
Taken in the same sequence, the figures for `CC(=O)c1ccc(C(=O)Nc2ccccc2NS(=O)(=O)c2ccccc2)o1` [Compound E4] were above 10 µM and 6.46 µM.
On the same counts, the results for `CC(=O)c1ccc(C(=O)Nc2ccc(NS(=O)(=O)c3ccccc3)cc2)o1` [Compound E5] are 0.23 µM and 0.06 µM.
Turning to `CC(=O)c1ccc(C(=O)Nc2ccc(NS(=O)(=O)c3ccccc3)c(O)c2)o1` [Compound E6], the IC50 on UT-B [2] stood at 0.18 µM; on UT-B [3], 0.05 µM.
Taken in the same sequence, the figures for `CC(=O)c1ccc(C(=O)Nc2ccc(S(=O)(=O)Nc3ccccc3)cc2)o1` [Compound E7] were 0.23 µM and 0.09 µM.
On the same counts, the results for `CC(=O)c1ccc(C(=O)Nc2ccc(S(=O)(=O)Nc3ccc(OCCN4CCOCC4)cc3)cc2)o1` [Compound E8] are 2.55 µM and 0.77 µM.
As to `CC(=O)c1ccc(C(=O)Nc2ccc(S(=O)(=O)Nc3ccc(OCCCN4CCOCC4)cc3)cc2)o1` [Compound E9], the values for the IC50 on UT-B [2] and on UT-B [3] were 4.07 µM and 1.75 µM, respectively.
On to `O=P1(N(CCCl)CCCl)NCCCO1` (stereo not drawn) [cyclophosphamide (CP), cyclophosphamide, reference compound], for which the “testicular and epididymal indices, sperm motility, abnormal morphology, sperm counts, Johnsen score” value in the data set with mice was “caused abnormalities”.
In the case of `Cc1ccccc1C(=O)Nc1ccc(C(=O)N2CCCC(O)c3cc(Cl)ccc32)c(C)c1` (stereo not drawn) [tolvaptan, reference compound], the “hyponatremia in SIADH rats” value in data set [4] (E3 4 or 20 mg/kg orally every 8 h, tolvaptan 4 mg/kg once daily, vs model) is reported as “significantly alleviated”. In data set [4] (setting [5]), the serum osmolality entry is “significantly increased” and the serum sodium concentration result is “significantly increased”. The blood urea levels result in data set [4] (SIADH rats, between experimental groups before and after treatment) is given as “no significant difference”. Besides, in data set [4] (SIADH rats, except dilatation of collecting ducts), the “H&E staining of kidney and liver” value is recorded as “normal tissue structures”.

The record behind these values is publication PMC12024912, “Druggability Studies of Benzene Sulfonamide Substituted Diarylamide (E3) as a Novel Diuretic” (Biomedicines, 2025).
